Patent publication US20190136321A1, “USE OF TRANSLATIONAL PROFILING TO IDENTIFY TARGET MOLECULES FOR THERAPEUTIC TREATMENT” (The Regents of The University of California, priority 2013, published 2019)

Columns and labels:
[1] = system: SW620 cells; experiment: Ribosome profiling of SW620 cells (transcription, translational rate, translational efficiency); format: cell-based, human; details: 8 hours
Method: SW620 human colon cancer cells were cultured in DMEM media supplemented with penicillin G (100 U/ml), streptomycin (100 μg/ml), and 10% FBS in a humidified atmosphere of 5% CO2 maintained at 37° C.
(§1) SW620 cells (ATCC, passage 12) were seeded at about 75% confluence 24 hrs prior to drug treatment. […] About 6×10^6 cells/10 cm plate and about 1×10^6 cells/well of a 6-well plate were harvested for ribosome profiling and Western blot analysis, respectively, following drug treatment.

[2] = system: SW620 cells; experiment: Western blot of phosphorylation of protein translation components in SW620 cells; format: cell-based, human
Method: as §1
Cells were washed with PBS and lysed in 1× cell lysis buffer (Cell Signaling) for 15 min at 4° C. Lysates were sonicated briefly, clarified by centrifugation for 15 min at 14, 000 rpm, and supernatants were then collected. Protein concentration in the soluble fraction was determined by BCA protein assay (Thermo Scientific). A 4-20% Bis-Tris gradient gel (Invitrogen) was used to resolve 20 μg of protein and transferred to nitrocellulose membrane. The resulting membranes were blocked for 1 hr at room temperature with Odyssey blocking solution (LI-COR) and then incubated with primary antibodies at 4° C. overnight. The following day, the blots were washed 3 times, 10 min each in TBST, and incubated with IR-conjugated goat anti-rabbit IgG secondary antibody (IRDye 800 CW at 1:20,000; LI-COR) for 1 hour at room temperature. The blots were then washed, scanned, and specific proteins were detected using the LI-COR Odyssey infrared imager. The following antibodies from Cell Signaling were used at 1:1000 dilution: anti-phospho-eIF4E(Ser209)(#9741), anti-phospho-rpS6(Ser235/236)(#4858), anti-phospho-ERK1/2(Thr202/Tyr204)(#4370), anti-phospho-p70S6K(Thr421/Ser424)(#9204), anti-phospho-p90RSK(Thr359/Ser363)(#9344), anti-phospho-4EBP(Ser65), anti-phospho-pAKT(Ser473), anti-phospho-eIF4E(Ser209), and anti-β-actin (#4970). Actin was used as a loading amount control.

SMILES: CC(=O)Nc1cccc(-n2c(=O)n(C3CC3)c(=O)c3c(Nc4ccc(I)cc4F)n(C)c(=O)c(C)c32)c1 [GSK212]
- Profile rna ([1]; gene IL8, 250 nM): −5.6 log2 MEKi/DMSO
- Profile rpf ([1]; gene IL8, 250 nM): −3.2 log2 MEKi/DMSO
- Profile TE ([1]; gene LIF, 250 nM): 0.9 log2 MEKi/DMSO
- Profile rna ([1]; gene LIF, 250 nM): −1.7 log2 MEKi/DMSO
- Profile rpf ([1]; gene LIF, 250 nM): −0.9 log2 MEKi/DMSO
- Profile TE ([1]; gene LNK/SH2B3, 250 nM): −0.9 log2 MEKi/DMSO
- Profile rna ([1]; gene LNK/SH2B3, 250 nM): 0.2 log2 MEKi/DMSO
- Profile rpf ([1]; gene LNK/SH2B3, 250 nM): −0.7 log2 MEKi/DMSO
- Profile TE ([1]; gene MAFF, 250 nM): 0.6 log2 MEKi/DMSO
- Profile rna ([1]; gene MAFF, 250 nM): −1.7 log2 MEKi/DMSO
- Profile rpf ([1]; gene MAFF, 250 nM): −1.1 log2 MEKi/DMSO
- Profile TE ([1]; gene MAP2K3, 250 nM): 1.0 log2 MEKi/DMSO
- Profile rna ([1]; gene MAP2K3, 250 nM): −1.6 log2 MEKi/DMSO
- Profile rpf ([1]; gene MAP2K3, 250 nM): −0.6 log2 MEKi/DMSO
- Profile TE ([1]; gene MYC, 250 nM): −0.3 log2 MEKi/DMSO
- Profile rna ([1]; gene MYC, 250 nM): −1.3 log2 MEKi/DMSO
- Profile rpf ([1]; gene MYC, 250 nM): −1.6 log2 MEKi/DMSO
- Profile TE ([1]; gene PHLDA2, 250 nM): 1.1 log2 MEKi/DMSO
- Profile rna ([1]; gene PHLDA2, 250 nM): −2.1 log2 MEKi/DMSO
- Profile rpf ([1]; gene PHLDA2, 250 nM): −1.1 log2 MEKi/DMSO
- Profile TE ([1]; gene PLK3, 250 nM): 0.7 log2 MEKi/DMSO
- Profile rna ([1]; gene PLK3, 250 nM): −3.1 log2 MEKi/DMSO
- Profile rpf ([1]; gene PLK3, 250 nM): −2.4 log2 MEKi/DMSO
- Profile TE ([1]; gene POLR1C, 250 nM): 0.2 log2 MEKi/DMSO
- Profile rna ([1]; gene POLR1C, 250 nM): −0.8 log2 MEKi/DMSO
- Profile rpf ([1]; gene POLR1C, 250 nM): −0.6 log2 MEKi/DMSO
- Profile TE ([1]; gene POLR3G, 250 nM): −0.1 log2 MEKi/DMSO
- Profile rna ([1]; gene POLR3G, 250 nM): −0.7 log2 MEKi/DMSO
- Profile rpf ([1]; gene POLR3G, 250 nM): −0.8 log2 MEKi/DMSO
- Profile TE ([1]; gene PPAN, 250 nM): −0.7 log2 MEKi/DMSO
- Profile rna ([1]; gene PPAN, 250 nM): −0.4 log2 MEKi/DMSO
- Profile rpf ([1]; gene PPAN, 250 nM): −1.1 log2 MEKi/DMSO
- Profile TE ([1]; gene PPAT, 250 nM): −0.3 log2 MEKi/DMSO
- Profile rna ([1]; gene PPAT, 250 nM): −0.4 log2 MEKi/DMSO
- Profile rpf ([1]; gene PPAT, 250 nM): −0.7 log2 MEKi/DMSO
- Profile TE ([1]; gene PYCRL, 250 nM): 0.1 log2 MEKi/DMSO
- Profile rna ([1]; gene PYCRL, 250 nM): −0.2 log2 MEKi/DMSO
- Profile rpf ([1]; gene PYCRL, 250 nM): 0.0 log2 MEKi/DMSO
- Profile TE ([1]; gene RRS1, 250 nM): 0.1 log2 MEKi/DMSO
- Profile rna ([1]; gene RRS1, 250 nM): −0.9 log2 MEKi/DMSO
- Profile rpf ([1]; gene RRS1, 250 nM): −0.8 log2 MEKi/DMSO
- Profile TE ([1]; gene SEMA6A, 250 nM): −1.5 log2 MEKi/DMSO
- Profile rna ([1]; gene SEMA6A, 250 nM): 2.3 log2 MEKi/DMSO
- Profile rpf ([1]; gene SEMA6A, 250 nM): 0.7 log2 MEKi/DMSO
- Profile TE ([1]; gene SLC1A5, 250 nM): −0.3 log2 MEKi/DMSO
- Profile rna ([1]; gene SLC1A5, 250 nM): −0.1 log2 MEKi/DMSO
- Profile rpf ([1]; gene SLC1A5, 250 nM): −0.5 log2 MEKi/DMSO
- Profile TE ([1]; gene SLC4A7, 250 nM): −0.9 log2 MEKi/DMSO
- Profile rna ([1]; gene SLC4A7, 250 nM): −0.2 log2 MEKi/DMSO
- Profile rpf ([1]; gene SLC4A7, 250 nM): −1.1 log2 MEKi/DMSO
- Profile TE ([1]; gene SPRED2, 250 nM): −1.3 log2 MEKi/DMSO
- Profile rna ([1]; gene SPRED2, 250 nM): −2.1 log2 MEKi/DMSO
- Profile rpf ([1]; gene SPRED2, 250 nM): −3.5 log2 MEKi/DMSO
- Profile TE ([1]; gene SPRY2, 250 nM): 0.4 log2 MEKi/DMSO
- Profile rna ([1]; gene SPRY2, 250 nM): −1.7 log2 MEKi/DMSO
- Profile rpf ([1]; gene SPRY2, 250 nM): −1.3 log2 MEKi/DMSO
- Profile TE ([1]; gene SPRY4, 250 nM): −2.0 log2 MEKi/DMSO
- Profile rna ([1]; gene SPRY4, 250 nM): −5.2 log2 MEKi/DMSO
- Profile rpf ([1]; gene SPRY4, 250 nM): −7.1 log2 MEKi/DMSO
- Profile TE ([1]; gene TNC, 250 nM): −1.6 log2 MEKi/DMSO
- Profile rna ([1]; gene TNC, 250 nM): 1.1 log2 MEKi/DMSO
- Profile rpf ([1]; gene TNC, 250 nM): −0.5 log2 MEKi/DMSO
- Profile TE ([1]; gene TNFRSF12A, 250 nM): 0.2 log2 MEKi/DMSO
- Profile rna ([1]; gene TNFRSF12A, 250 nM): −2.2 log2 MEKi/DMSO
- Profile rpf ([1]; gene TNFRSF12A, 250 nM): −2.0 log2 MEKi/DMSO
- Profile TE ([1]; gene WDR3, 250 nM): −1.0 log2 MEKi/DMSO
- Profile rna ([1]; gene WDR3, 250 nM): 0.0 log2 MEKi/DMSO
- Profile rpf ([1]; gene WDR3, 250 nM): −1.0 log2 MEKi/DMSO
- Profile TE ([1]; gene YRDC, 250 nM): 0.1 log2 MEKi/DMSO
- Profile rna ([1]; gene YRDC, 250 nM): −0.7 log2 MEKi/DMSO
- Profile rpf ([1]; gene YRDC, 250 nM): −0.6 log2 MEKi/DMSO
- phosphorylation of S6, eIF4E and 4EBP1 ([2]; 25 nM to 100 nM (data not shown)): little or no effect
- Phosphorylation of ERK and p90RSK ([2]; 250 nM, 8 hrs): completely inhibited
- phosphorylation of eIF4E ([2]; 250 nM, 8 hrs): partial inhibition
- phosphorylation of the ribosomal protein S6 (rpS6) and S6K (p70RSK) ([2]; 250 nM, 8 hrs): only partial inhibition
